The source of these data is PMC8151276, “An Integrated Approach toward NanoBRET Tracers for Analysis of GPCR Ligand Engagement” (Molecules, 2021).

Each structure is given as a SMILES string.

One experiment addresses T1, HTR2C (Homo sapiens, UniProt P28335).
T1 construct: purchased Promega (in-house HiBiT-GPCR construct library, NanoBRET)
T1 sequence (P28335 33-458): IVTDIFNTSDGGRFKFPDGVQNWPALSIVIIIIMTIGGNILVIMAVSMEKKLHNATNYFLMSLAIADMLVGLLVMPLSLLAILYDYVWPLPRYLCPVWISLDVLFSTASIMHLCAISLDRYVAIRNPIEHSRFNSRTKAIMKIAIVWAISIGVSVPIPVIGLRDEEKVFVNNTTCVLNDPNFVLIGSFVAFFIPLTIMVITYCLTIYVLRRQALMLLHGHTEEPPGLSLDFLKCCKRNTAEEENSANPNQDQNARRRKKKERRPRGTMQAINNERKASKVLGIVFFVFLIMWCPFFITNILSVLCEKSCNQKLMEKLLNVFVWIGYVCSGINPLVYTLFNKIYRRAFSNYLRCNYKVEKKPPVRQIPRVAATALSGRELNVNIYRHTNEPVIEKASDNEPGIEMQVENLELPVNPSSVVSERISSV
Description: NanoBRET screen HiBiT-HTR2C in HEK293. The class given is binding. The method, then: (§1) Each tracer candidate was screened across the entire library of HiBiT-GPCR constructs using NanoBRET as the detection modality. As depicted in Figure 4A, the specificity of interactions was evaluated through decrease in BRET due to competitive displacement of a bound tracer by excess parental compound. Each tracer was analyzed for binding to each HiBiT-GPCR fusion in the absence and in the presence of competing parental compound. Briefly, HEK293 cells were transfected with HiBiT-GPCR constructs diluted into promoterless DNA to reduce expression and maximize translocation to the cell surface. Each tracer candidate was then screened at concentrations of 1 μM and 0.1 μM across cells expressing these fusions. Cells were treated for 1.5 h with tracer either alone or in the presence of 20 μM competing parental compound (i.e., control). BRET was measured upon addition of purified LgBiT and subsequent complementation with HiBiT genetically fused to a GPCR. The specificity of interactions was assessed through a decrease in BRET signal due to competitive displacement of the bound tracer. To further gauge the robustness of these interactions, the fold response over the control (i.e., BRETtracer/BRETcontrol) was calculated. We chose a 1.5-fold response, which translates to ≥7-fold signal over noise as the minimal threshold required to score an interaction as positive.
(§2) HiBiT-GPCR DNA constructs were diluted in 10 mM Tris pH 8 to a final concentration of 0.01 μg/μL, arrayed in 96-well plates and stored at −20 °C. For transfection, HEK293 cells were suspended in Opti-MEM (without phenol red) supplemented with 2% fetal bovine serum (Seradigm) and 100 units/mL penicillin–streptomycin (Gibco) at a final concentration of 220,000 cells/mL and dispensed into white 96-well plates at 90 μL/well. Subsequent transfections and screens were carried using an Agilent Bravo Automated Liquid Handling Platform. First, the 96-well HiBiT DNA arrays were diluted 25-fold in Opti-MEM (without serum or phenol red) to a final concentration of 0.0004 μg/μL and 20 μL of the diluted DNAs were transferred into new 96-well plates. Next, promoterless carrier DNA (1 μg/μL) was diluted 25-fold (0.04 μg/μL) and then dispensed into the diluted arrays at 20 μL/well. Following brief mixing, Viafect transfection reagent (Promega) diluted 16-fold into Opti-MEM was dispensed into the plates at 40 μL/well. After mixing by pipetting, plates were incubated for 10 min on the pipetting station deck. The DNA-transfection reagent complexes were then added to plates containing cells. To facilitate the screen, 10 μL of DNA-transfection reagent complexes were added in duplicates to the top 4 and bottom 4 rows, resulting in two identical 48-well arrays per plate. Plates with transfected cells were incubated for 18–20 h at 37 °C/5% CO2. A screen of each tracer across the entire library using two different concentrations requires duplicate plates of transfected cells. Depending on the number of tracers being screened, transfections can be scaled up using the same ratios. The next day, for each tracer, four 20× screening solutions in tracer dilution buffer (Promega) were prepared: two duplicates at final concentration of 20 μM and two duplicates at a final concentration of 2 μM. […] The four resulting solutions were diluted 4-fold in Opti-MEM without serum or phenol red to generate 5× solutions (5 µM and 0.5 µM tracer +/− 100 μM competing compound). To screen the library, a BioTek MultiFlo FX liquid dispenser was used to dispense 22.5 µL of tracer solution to the top 4 rows and 22.5 µL tracer + competing compound solution to the 4 bottom rows. Plates were briefly mixed on an orbital shaker and incubated for 1.5 h at room temperature. […] Plates were briefly mixed on an orbital shaker and incubated for 15 min to allow complementation.
A general note: BRET reads energy transfer from a luciferase to a nearby fluorophore.

The target of another experiment is T2, CYSLTR1 (Homo sapiens, UniProt Q9Y271).
T2 construct: purchased Promega (in-house HiBiT-GPCR construct library, NanoBRET)
T2 sequence (Q9Y271 1-337): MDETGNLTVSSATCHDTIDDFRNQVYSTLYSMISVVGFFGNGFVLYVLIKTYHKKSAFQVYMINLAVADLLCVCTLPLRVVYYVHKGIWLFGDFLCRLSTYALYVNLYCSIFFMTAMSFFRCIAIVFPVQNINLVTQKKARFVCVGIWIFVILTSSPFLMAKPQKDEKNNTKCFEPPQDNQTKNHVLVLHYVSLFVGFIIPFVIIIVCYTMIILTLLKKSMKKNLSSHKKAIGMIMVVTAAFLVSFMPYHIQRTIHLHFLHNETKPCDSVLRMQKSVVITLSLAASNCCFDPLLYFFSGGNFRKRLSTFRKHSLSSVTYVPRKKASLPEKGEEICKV
The experiment is described as follows: NanoBRET screen HiBiT-CYSLTR1 in HEK293. The class given is binding. As to the method:
as §1, §2

As for `O=C(CCc1ccc2n1[B-](F)(F)[N+]1=C(c3ccc[nH]3)C=CC1=C2)NCc1ccc(C(=O)NCCOCCC(=O)N[C@@H]2CC[C@@]3(O)[C@H]4Cc5ccc(O)c6c5[C@@]3(CCN4CC3CC3)[C@H]2O6)cc1` [Naltrexone-3-NB590], the “NanoBRET Fold Response” value came out at 0.79 at HTR2C (HTR2C, tracer 0.1μM); 1.03 at HTR2C (HTR2C, tracer 1μM); 0.74 on CYSLTR1 (CYSLTR1, tracer 0.1μM); 1.09 on CYSLTR1 (CYSLTR1, tracer 1μM).

As for `CN1CCN(C2=Nc3cc(Cl)ccc3N(CC(=O)NCCOCCOCCOCCOCCNC(=O)CCc3ccc4n3[B-](F)(F)[N+]3=C(c5ccc[nH]5)C=CC3=C4)c3ccccc32)CC1` [Clozapine-c-2-NB590], on CYSLTR1 (CYSLTR1, 0.1μM tracer), the “NanoBRET Fold Response” value was 0.90.

With `O=C(CCOCCOCCOCCOCCNC(=O)CCc1ccc2n1[B-](F)(F)[N+]1=C(c3ccc[nH]3)C=CC1=C2)NCCCN1CCN(C2=Nc3cc(Cl)ccc3Nc3ccccc32)CC1` [Clozapine-a-2-NB590], the “NanoBRET Fold Response” value at HTR2C (HTR2C, 0.1μM tracer) stood at 1.89; on HTR2C (HTR2C, 1μM tracer) it was 3.22; on CYSLTR1 (CYSLTR1, 0.1μM tracer), 0.98; at CYSLTR1 (CYSLTR1, 1μM tracer), 1.11.

For `CCOC(=O)c1cc(C#N)c(N2CCC(C(=O)NS(=O)(=O)Cc3ccccc3/C=C/C(=O)NCCNC(=O)CCc3ccc4n3[B-](F)(F)[N+]3=C(c5ccc[nH]5)C=CC3=C4)CC2)nc1C` [AZD1283-1-NB590], the “NanoBRET Fold Response” value at HTR2C (HTR2C, 0.1μM) is recorded as 0.95; at HTR2C (HTR2C, 1μM), 1.04; at CYSLTR1 (CYSLTR1, 0.1μM), 1.01; at CYSLTR1 (CYSLTR1, 1μM), 0.98.

As to `COc1ccc2[nH]c(-c3ccc(CNC(=O)CCOCCOCCOCCOCCNC(=O)CCc4ccc5n4[B-](F)(F)[N+]4=C(c6ccc[nH]6)C=CC4=C5)cc3)c(CCNC(C)=O)c2n1` [AzomelatoninICO9-2-NB590], the “NanoBRET Fold Response” value at HTR2C (0.1μM tracer) turned out to be 1.02; on HTR2C (1μM tracer), 1.10; on CYSLTR1 (0.1μM tracer) it was 0.86; on CYSLTR1 (1μM tracer), 0.91.

As to `CCCn1c(=O)c2[nH]c(-c3ccc(OCC(=O)NCCNC(=O)CCOCCNC(=O)c4ccc(CNC(=O)CCc5ccc6n5[B-](F)(F)[N+]5=C(c7ccc[nH]7)C=CC5=C6)cc4)cc3)nc2n(CCC)c1=O` [XAC-3-NB590], the “NanoBRET Fold Response” value at HTR2C (HTR2C, tracer 0.1μM) is 1.45; on HTR2C (HTR2C, tracer 1μM) it was 0.88; on CYSLTR1 (CYSLTR1, tracer 1μM), 1.08.

Take `COc1ccccc1N1CCN(CCCCN2C(=O)c3ccc(CNC(=O)CCOCCNC(=O)c4ccc(CNC(=O)CCc5ccc6n5[B-](F)(F)[N+]5=C(c7ccc[nH]7)C=CC5=C6)cc4)cc3C2=O)CC1` [NAN-190-3-NB590]: the “NanoBRET Fold Response” value is 1.04 at HTR2C (HTR2C, tracer 0.1μM); 1.06 at HTR2C (HTR2C, tracer 1μM); 1.15 at CYSLTR1 (CYSLTR1, tracer 0.1μM); 1.30 on CYSLTR1 (CYSLTR1, tracer 1μM).

On to `CN(CCC=C1c2ccccc2CCc2ccccc21)C(=O)CCOCCOCCOCCOCCNC(=O)CCc1ccc2n1[B-](F)(F)[N+]1=C(c3ccc[nH]3)C=CC1=C2` [Amitriptyline-e-2-NB590], for which the “NanoBRET Fold Response” value at HTR2C (tracer at 1μM) was determined as 1.03.

For `O=C(CCc1ccc2n1[B-](F)(F)[N+]1=C(c3ccc[nH]3)C=CC1=C2)NCc1ccc(C(=O)NCCOCCOCCNCC(O)COc2cccc3ccccc23)cc1` (stereo not shown) [Propranolol-3-NB590], the “NanoBRET Fold Response” value at HTR2C (HTR2C, 0.1μM) was 1.22; at HTR2C (HTR2C, 1μM), 1.21; at CYSLTR1 (CYSLTR1, 0.1μM), 0.71.

As to `COc1ccc2c(n1)c(CCNC(C)=O)cn2CCNC(=O)CCc1ccc2n1[B-](F)(F)[N+]1=C(c3ccc[nH]3)C=CC1=C2` [Azamelatonin-1-NB590], the “NanoBRET Fold Response” value on HTR2C (0.1μM tracer) was found to be 0.91; on HTR2C (1μM tracer) it was 0.91; on CYSLTR1 (0.1μM tracer), 0.81; on CYSLTR1 (1μM tracer) it was 1.23.

Take `O=C(CCOCCOCCOCCOCCNC(=O)CCc1ccc2n1[B-](F)(F)[N+]1=C(c3ccc[nH]3)C=CC1=C2)NCCCN1CCN(C2=Nc3ccccc3Oc3ccc(Cl)cc32)CC1` [Loxapine-a-2-NB590]: the “NanoBRET Fold Response” value at HTR2C (HTR2C, tracer 0.1μM) is reported as 1.60; at HTR2C (HTR2C, tracer 1μM), 1.62; at CYSLTR1 (CYSLTR1, tracer 0.1μM) it was 1.12; at CYSLTR1 (CYSLTR1, tracer 1μM), 1.02.

`N#CN/C(=N\CCNC(=O)c1ccc(N)cc1)NCCCOc1cccc(CN2CCCCC2)c1` [Aminopotentidine (unmodified)]: the “NanoBRET Fold Response” value at HTR2C (HTR2C, other tracers/Aminopotentidine (unmodified), 0.1μM) was determined as 1.48; at HTR2C (HTR2C, other tracers/Aminopotentidine (unmodified), 1μM), 1.66.

Take `COc1ccccc1N1CCN(CCCCN2C(=O)c3ccc(CNC(=O)CCOCCOCCOCCOCCNC(=O)CCc4ccc5n4[B-](F)(F)[N+]4=C(c6ccc[nH]6)C=CC4=C5)cc3C2=O)CC1` [NAN-190-2-NB590]: the “NanoBRET Fold Response” value at HTR2C (HTR2C, tracer 0.1μM) is given as 1.00; at HTR2C (HTR2C, tracer 1μM), 1.14; at CYSLTR1 (CYSLTR1, tracer 0.1μM) it was 1.04; at CYSLTR1 (CYSLTR1, tracer 1μM), 1.02.

Regarding `CC(C)N(CC[C@H](c1ccccc1)c1cc(CCNC(=O)c2ccc(CNC(=O)CCc3ccc4n3[B-](F)(F)[N+]3=C(c5ccc[nH]5)C=CC3=C4)cc2)ccc1O)C(C)C` [Tolterodine-BZ-NB590], the “NanoBRET Fold Response” value at HTR2C (HTR2C, tracer 0.1μM) came to 0.86; at HTR2C (HTR2C, tracer 1μM) it was 1.55; at CYSLTR1 (CYSLTR1, tracer 0.1μM) it was 0.97; at CYSLTR1 (CYSLTR1, tracer 1μM) it was 0.99.

As to `O=C(CCc1ccc2n1[B-](F)(F)[N+]1=C(c3ccc[nH]3)C=CC1=C2)NCCOCCOCCNC(=O)OCCOCCN1CCN(C2=Nc3ccccc3Sc3ccccc32)CC1` [Quetiapine-a-2-NB590], the “NanoBRET Fold Response” value was found to be 0.99 at HTR2C (HTR2C, tracer 0.1μM); 1.17 on HTR2C (HTR2C, tracer 1μM); 0.90 on CYSLTR1 (CYSLTR1, tracer 0.1μM); 1.08 at CYSLTR1 (CYSLTR1, tracer 1μM).

As to `CN1CCN(C2=Nc3cc(Cl)ccc3Nc3ccc(CNC(=O)CCOCCOCCOCCOCCNC(=O)CCc4ccc5n4[B-](F)(F)[N+]4=C(c6ccc[nH]6)C=CC4=C5)cc32)CC1` [Clozapine-b-2-NB590], on CYSLTR1 (CYSLTR1, 0.1μM tracer), the “NanoBRET Fold Response” value is listed as 1.10.

For the compound `CN(C)CCC=C1c2ccccc2CCc2ccc(C(=O)NCCNC(=O)CCOCCOCCOCCOCCNC(=O)CCc3ccc4n3[B-](F)(F)[N+]3=C(c5ccc[nH]5)C=CC3=C4)cc21` [Amitriptyline-a-2-NB590], on HTR2C (tracer at 1μM), the “NanoBRET Fold Response” value was found to be 1.80.
